Each structure is given as a SMILES string. pKi: −log10 of the molar value.

The first test deals with GST-Bcl-2 (Homo sapiens (Human), UniProt P10415). Put plainly: Time Resolved-Fluorescence Resonance Energy Transfer (TR-FRET) Bcl-2 binding assay.
Sequence of GST-Bcl-2 (P10415 whole entry): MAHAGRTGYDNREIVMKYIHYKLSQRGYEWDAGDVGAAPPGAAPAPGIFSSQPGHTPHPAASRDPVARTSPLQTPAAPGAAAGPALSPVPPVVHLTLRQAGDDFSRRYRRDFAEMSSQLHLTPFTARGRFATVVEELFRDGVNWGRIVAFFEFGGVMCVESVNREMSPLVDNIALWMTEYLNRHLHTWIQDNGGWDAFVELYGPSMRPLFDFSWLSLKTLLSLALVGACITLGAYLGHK
Settings: not given
A digest of the protocol:
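Ki values derived from TR-FRET displacement of F-Bak peptide from GST-Bcl-2, detected with Tb-labelled anti-GST antibody (ex 340, em 520/495 nm). Compound dilution series started at 50 μM (2× starting concentration); room-temperature incubation 3 hours.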
Broadly, the pKi is the negative decadic logarithm of the Ki, by convention in mol/L. `CC1(C)CCC(CN2CCN(c3ccc(C(=O)NS(=O)(=O)c4ccc(N[C@H]5CC[C@H](N6CCOCC6)CC5)c([N+](=O)[O-])c4)c(Oc4cccc5c4CCNC5=O)c3)CC2)=C(c2ccc(Cl)cc2)C1` [Example 304, Trans-4-(4-{[2-(4-chlorophenyl)-4,4-dimethylcyclohex-1-en-1-yl]methyl}piperazin-1-yl)-N-({4-[(4-morpholin-4-ylcyclohexyl)amino]-3-nitrophenyl}sulfonyl)-2-[(1-oxo-1,2,3,4-tetrahydroisoquinolin-5-yl)oxy]benzamide]: the pKi is 9.09.

In the case of `CC1(C)CCC(CN2CCN(c3ccc(C(=O)NS(=O)(=O)c4cnc(N[C@H]5CC[C@H](N6CCOCC6)CC5)c(Br)c4)c(Oc4cc5cc[nH]c5cc4F)c3)CC2)=C(c2ccc(Cl)cc2)C1` [Example 307, Trans-N-({5-bromo-6-[(4-morpholin-4-ylcyclohexyl)amino]pyridin-3-yl}sulfonyl)-4-(4-{[2-(4-chlorophenyl)-4,4-dimethylcyclohex-1-en-1-yl]methyl}piperazin-1-yl)-2-[(6-fluoro-1H-indol-5-yl)oxy]benzamide], the pKi is 9.28.

In turn, `CC1(C)CCC(CN2CCN(c3ccc(C(=O)NS(=O)(=O)c4ccc(O[C@H]5CC[C@H](N6CCOCC6)CC5)c([N+](=O)[O-])c4)c(Oc4cc5cc[nH]c5cc4F)c3)CC2)=C(c2ccc(Cl)cc2)C1` [Example 311, Trans-4-(4-{[2-(4-chlorophenyl)-4,4-dimethylcyclohex-1-en-1-yl]methyl}piperazin-1-yl)-2-[(6-fluoro-1H-indol-5-yl)oxy]-N-({4-[(4-morpholin-4-ylcyclohexyl)oxy]-3-nitrophenyl}sulfonyl)benzamide] had a negative logarithm of the Ki (pKi) of 9.73.

The molecule `O=C(NS(=O)(=O)c1ccc(N[C@H]2CC[C@H](N3CCOCC3)CC2)c(S(=O)(=O)C(F)(F)F)c1)c1ccc(N2CCN(CC3=C(c4ccc(Cl)cc4)CCOCC3)CC2)cc1Oc1cc2cc[nH]c2cc1Cl` [Example 314, Trans-2-[(6-chloro-1H-indol-5-yl)oxy]-4-(4-{[5-(4-chlorophenyl)-2,3,6,7-tetrahydrooxepin-4-yl]methyl}piperazin-1-yl)-N-({4-[(4-morpholin-4-ylcyclohexyl)amino]-3-[(trifluoromethyl)sulfonyl]phenyl}sulfonyl)benzamide] showed a negative logarithm of the Ki (pKi) of 8.51. On the same count and under the same terms, under `O=C(NS(=O)(=O)c1ccc(N[C@H]2CC[C@H](N3CCOCC3)CC2)c([N+](=O)[O-])c1)c1ccc(N2CCN(CC3=C(c4ccc(Cl)cc4)CCOCC3)CC2)cc1Oc1cc2cc[nH]c2cc1Cl` [Example 315, Trans-2-[(6-chloro-1H-indol-5-yl)oxy]-4-(4-{[5-(4-chlorophenyl)-2,3,6,7-tetrahydrooxepin-4-yl]methyl}piperazin-1-yl)-N-({4-[(4-morpholin-4-ylcyclohexyl)amino]-3-nitrophenyl}sulfonyl)benzamide] stands 8.34; under `CC1(C)CCC(CN2CCN(c3ccc(C(=O)NS(=O)(=O)c4ccc(N[C@H]5CC[C@H](N6CCOCC6)CC5)c([N+](=O)[O-])c4)c(Oc4cccc5c4CC(=O)N5)c3)CC2)=C(c2ccc(Cl)cc2)C1` [Example 320, Trans-4-(4-{[2-(4-chlorophenyl)-4,4-dimethylcyclohex-1-en-1-yl]methyl}piperazin-1-yl)-N-({4-[(4-morpholin-4-ylcyclohexyl)amino]-3-nitrophenyl}sulfonyl)-2-[(2-oxo-2,3-dihydro-1H-indol-4-yl)oxy]benzamide], 10.55.

Still in this test, the particulars now being: GST-Bcl-2 1 nM, F-Bak peptide probe 100 nM, Tb-anti-GST antibody 1 nM; Ki by Wang's equation.
As to `CC1(C)CCC(CN2CCN(c3ccc(C(=O)NS(=O)(=O)c4cnc(OCC5CCOCC5)c(Cl)c4)c(Oc4cc5cc[nH]c5cc4F)c3)CC2)=C(c2ccc(Cl)cc2)C1` [Example 303, 4-(4-{[2-(4-chlorophenyl)-4,4-dimethylcyclohex-1-en-1-yl]methyl}piperazin-1-yl)-N-{[5-chloro-6-(tetrahydro-2H-pyran-4-ylmethoxy)pyridin-3-yl]sulfonyl}-2-[(6-fluoro-1H-indol-5-yl)oxy]benzamide], the pKi was 10.04.

Molecule `CC1(C)CCC(CN2CCN(c3ccc(C(=O)NS(=O)(=O)c4cnc(OCC5COCCO5)c(C#N)c4)c(Oc4cc5cc[nH]c5cc4F)c3)CC2)=C(c2ccc(Cl)cc2)C1` (stereo not drawn) [Example 305, 4-(4-{[2-(4-chlorophenyl)-4,4-dimethylcyclohex-1-en-1-yl]methyl}piperazin-1-yl)-N-{[5-cyano-6-(1,4-dioxan-2-ylmethoxy)pyridin-3-yl]sulfonyl}-2-[(6-fluoro-1H-indol-5-yl)oxy]benzamide] had a pKi of 9.84. On the same count and under the same terms, under `CC1(C)CCC(CN2CCN(c3ccc(C(=O)NS(=O)(=O)c4cnc(OCC5COCCO5)c(Br)c4)c(Oc4cc5cc[nH]c5cc4F)c3)CC2)=C(c2ccc(Cl)cc2)C1` (stereo not drawn) [Example 306, N-{[5-bromo-6-(1,4-dioxan-2-ylmethoxy)pyridin-3-yl]sulfonyl}-4-(4-{[2-(4-chlorophenyl)-4,4-dimethylcyclohex-1-en-1-yl]methyl}piperazin-1-yl)-2-[(6-fluoro-1H-indol-5-yl)oxy]benzamide] stands 9.17; under `CC1(C)CCC(CN2CCN(c3ccc(C(=O)NS(=O)(=O)c4cnc(OCC5(F)CCOCC5)c(C#N)c4)c(Oc4cc5cc[nH]c5cc4F)c3)CC2)=C(c2ccc(Cl)cc2)C1` [Example 308, 4-(4-{[2-(4-chlorophenyl)-4,4-dimethylcyclohex-1-en-1-yl]methyl}piperazin-1-yl)-N-({5-cyano-6-[(4-fluorotetrahydro-2H-pyran-4-yl)methoxy]pyridin-3-yl}sulfonyl)-2-[(6-fluoro-1H-indol-5-yl)oxy]benzamide], 10.40; under `CC1(C)CCC(CN2CCN(c3ccc(C(=O)NS(=O)(=O)c4ccc(NCC5CCOCC5)c([N+](=O)[O-])c4)c(Oc4cc(N)cc(Cl)c4)c3)CC2)=C(c2ccc(Cl)cc2)C1` [Example 309, 2-(3-amino-5-chlorophenoxy)-4-(4-{[2-(4-chlorophenyl)-4,4-dimethylcyclohex-1-en-1-yl]methyl}piperazin-1-yl)-N-({3-nitro-4-[(tetrahydro-2H-pyran-4-ylmethyl)amino]phenyl}sulfonyl)benzamide], 9.16. Same read-out and setting: under `CC1(C)CCC(CN2CCN(c3ccc(C(=O)NS(=O)(=O)c4cnc(OCCN5CCOCC5)c(C#N)c4)c(Oc4cc5cc[nH]c5cc4F)c3)CC2)=C(c2ccc(Cl)cc2)C1` [Example 310, 4-(4-{[2-(4-chlorophenyl)-4,4-dimethylcyclohex-1-en-1-yl]methyl}piperazin-1-yl)-N-{[5-cyano-6-(2-morpholin-4-ylethoxy)pyridin-3-yl]sulfonyl}-2-[(6-fluoro-1H-indol-5-yl)oxy]benzamide] stands 9.81; under `CC1(C)CCC(CN2CCN(c3ccc(C(=O)NS(=O)(=O)c4cnc(NC5CCN(C6CCOCC6)CC5)c(Br)c4)c(Oc4cc5cc[nH]c5cc4F)c3)CC2)=C(c2ccc(Cl)cc2)C1` [Example 312, N-({5-bromo-6-[(1-tetrahydro-2H-pyran-4-ylpiperidin-4-yl)amino]pyridin-3-yl}sulfonyl)-4-(4-{[2-(4-chlorophenyl)-4,4-dimethylcyclohex-1-en-1-yl]methyl}piperazin-1-yl)-2-[(6-fluoro-1H-indol-5-yl)oxy]benzamide], 9.27. On to `CC1(C)CCC(CN2CCN(c3ccc(C(=O)NS(=O)(=O)c4ccc(OCC5(F)CCOCC5)c([N+](=O)[O-])c4)c(Oc4cccc5c4CC(=O)N5)c3)CC2)=C(c2ccc(Cl)cc2)C1` [Example 313, 4-(4-{[2-(4-chlorophenyl)-4,4-dimethylcyclohex-1-en-1-yl]methyl}piperazin-1-yl)-N-({4-[(4-fluorotetrahydro-2H-pyran-4-yl)methoxy]-3-nitrophenyl}sulfonyl)-2-[(2-oxo-2,3-dihydro-1H-indol-4-yl)oxy]benzamide], for which the pKi is above 11.00.

Regarding `CN1CCN(Nc2ccc(S(=O)(=O)NC(=O)c3ccc(N4CCN(CC5=C(c6ccc(Cl)cc6)CC(C)(C)OC5)CC4)cc3Oc3cc4cc[nH]c4cc3F)cc2[N+](=O)[O-])CC1` [Example 316, 4-(4-{[4-(4-chlorophenyl)-6,6-dimethyl-5,6-dihydro-2H-pyran-3-yl]methyl}piperazin-1-yl)-2-[(6-fluoro-1H-indol-5-yl)oxy]-N-({4-[(4-methylpiperazin-1-yl)amino]-3-nitrophenyl}sulfonyl)benzamide], the pKi was 10.24. In turn, `CC1(C)CCC(CN2CCN(c3ccc(C(=O)NS(=O)(=O)c4ccc(OCC#CCN5CCOCC5)c([N+](=O)[O-])c4)c(Oc4cc5cc[nH]c5cc4F)c3)CC2)=C(c2ccc(Cl)cc2)C1` [Example 317, 4-(4-{[2-(4-chlorophenyl)-4,4-dimethylcyclohex-1-en-1-yl]methyl}piperazin-1-yl)-2-[(6-fluoro-1H-indol-5-yl)oxy]-N-({4-[(4-morpholin-4-ylbut-2-ynyl)oxy]-3-nitrophenyl}sulfonyl)benzamide] showed a pKi of 9.69. On to `CC1(C)CCC(CN2CCN(c3ccc(C(=O)NS(=O)(=O)c4ccc(NCC5CCOCC5)c([N+](=O)[O-])c4)c(Oc4cnc(N)c(Cl)c4)c3)CC2)=C(c2ccc(Cl)cc2)C1` [Example 318, 2-[(6-amino-5-chloropyridin-3-yl)oxy]-4-(4-{[2-(4-chlorophenyl)-4,4-dimethylcyclohex-1-en-1-yl]methyl}piperazin-1-yl)-N-({3-nitro-4-[(tetrahydro-2H-pyran-4-ylmethyl)amino]phenyl}sulfonyl)benzamide], for which the pKi was above 11.00. Same read-out and setting: under `COCCNc1ccc(S(=O)(=O)NC(=O)c2ccc(N3CCN(CC4=C(c5ccc(Cl)cc5)CC(C)(C)CC4)CC3)cc2Oc2cccc3c2CC(=O)N3)cc1[N+](=O)[O-]` [Example 321, 4-(4-{[2-(4-chlorophenyl)-4,4-dimethylcyclohex-1-en-1-yl]methyl}piperazin-1-yl)-N-({4-[(2-methoxyethyl)amino]-3-nitrophenyl}sulfonyl)-2-[(2-oxo-2,3-dihydro-1H-indol-4-yl)oxy]benzamide] stands 10.54.

The values above are taken from patent US8952157B2, “Apoptosis-inducing agents for the treatment of cancer and immune and autoimmune diseases” (AbbVie Inc., priority 2008, dated 2015).
